Test system: HSC subsets
Experiment: LSK subset analysis based on Flt3 and Thy1.1 expression
Format: in vivo, mice
Protocol: FIGS. 12A and 12B are representative plots of flow cytometric strategy of LSK subset from bone marrow of individual vehicle and PGE2-treated mice, numbers in the quadrant represent percentage of LSK.
To further confirm this targeted PGE2 effect, LSK subset analysis based on Flt3 and Thy1.1 expression was performed. […] (n=4 per treatment group).

## CCCCC[C@H](O)/C=C/[C@H]1[C@H](O)CC(=O)[C@@H]1C/C=C\CCCC(=O)O [PGE2, Prostaglandin E2]
n=4, p 0.007 vs vehicle
  MPP (Flt3+Thy1.1- LSK) quantification from bone marrow: 0.0305 ± 0.002398
n=4, p 0.0307 vs vehicle
  ST-HSC (Flt3+Thy1.1int LSK) quantification from bone marrow: 0.02725 ± 0.003568
n=4, p 0.1069 (NS) vs vehicle
  LT-HSC (Flt3−Thy1.1int LSK) quantification from bone marrow: 0.01264 ± 0.002233
